{
  "source": "paper PMC10604187",
  "about": "(Antioxidants, 2023)",
  "key": {"[1]": {"experiment": "ABTS radical cation scavenging assay", "details": "100 μM test samples", "procedure": "The ABTS radical cation-scavenging activities of analogs 1–10 were investigated according to a previously described protocol with minor modifications. Briefly, to prepare a test solution for the ABTS radical cation scavenging activity, potassium persulfate aqueous solution (10 mL, 2.45 mM) was mixed with ABTS aqueous solution (10 mL, 7 mM) and left for 12 h at room temperature in the dark until the absorbance remained constant. Prior to the ABTS radical cation scavenging assay experiments, the absorbance at 734 nm was adjusted to 0.70 ± 0.02 by diluting the ABTS radical cation solution with water. An aliquot (10 µL) of 1–10 or Trolox (the positive reference material) at 100 µM was mixed with the ABTS radical cation solution (90 µL) in each well of a 96-well plate and incubated for 10 min at ambient temperature in the dark. The optical density of each well was measured at 734 nm using a VersaMax® microplate reader. All experiments were performed independently 3 times.\nThe antioxidant potential of 1–10 was investigated using the ABTS radical cation scavenging technique. ABTS can be easily oxidized to the corresponding radical cation by oxidants such as potassium persulfate. Because of the correlation between melanogenesis and antioxidant activity, the ABTS radical-scavenging ability of 1–10 was examined. […]"}, "[2]": {"system": "freshly-cut apple slices", "experiment": "Anti-browning assay of freshly-cut apple slices", "parameters": "species or system Malus pumila Miller", "details": "for inhibition at 5000 µM: Malus pumila, read-out: inhibition of apple slice browning (relative browning intensity) compared to control; for L* value change (ΔL*): 48 h storage time point", "procedure": "Apples (Malus pumila Miller) of similar maturity were purchased from a local market (Emart24®, Busan, Republic of Korea). The apples were cut into small equal-sized pieces (W × D × H, 1.5 ± 0.1 cm × 1.5 ± 0.1 cm × 0.3 ± 0.05 cm). Three apple slices were placed in glass dishes with a diameter of 5 cm.\n(§1) The apple slice dishes were placed in an incubator maintained at 20 °C. Kojic acid and PTU were used as positive controls. All samples, except PTU, were prepared as aqueous solutions. PTU test samples were prepared in a DMSO solution as it is only soluble in water at very low concentrations.\nAt five time points (0, 12, 24, 36, and 48 h), apple slices were photographed using a camera (iPhone 11), and browning colors (a*, b*, and L*) were measured using a CR-10 spectrophotometer (Konica Minolta Sensing, Inc., Osaka, Japan). In the spectrophotometer, the colors were described by a* (redness and greenness), b* (yellowness and blueness), and L* (lightness) values according to the Commission Internationale de l’Eclairage (CIE) color system. The overall color difference (ΔE) was calculated using the following formula: (ΔE)^2 = (a − ainitial)^2 + (b − binitial)^2 + (L − Linitial)^2. In addition, based on the photographs, the relative browning intensities were calculated using CS analyzer 3.2 image analysis software."}, "[3]": {"target": "T1, mushroom tyrosinase (Agaricus bisporus, UniProt C7FF04)", "experiment": "Mushroom tyrosinase inhibitory assay, diphenolase activity (L-dopa substrate)", "assay_type": "biochemical", "details": "vs kojic acid", "procedure": "The effect of the analogs on enzyme inhibition was investigated in the presence of L-dopa and L-tyrosine. […] After incubating the assay mixture for 0.5 h at 37 °C, the amounts of dopachrome produced during the incubation time were evaluated by measuring the absorbances of each well at 475 nm using a VersaMax^TM microplate reader (Molecular Devices, Sunnyvale, CA, USA)."}, "[4]": {"target": "T1, mushroom tyrosinase", "experiment": "biochemical", "details": "for mode of tyrosinase inhibition: Lineweaver–Burk plots, L-dopa", "procedure": "Briefly, a dimethyl sulfoxide (DMSO) solution (10 µL) containing test analogs (final concentrations: 0, 5, 10, and 20 nM) was added to the wells of a 96-well plate containing mushroom tyrosinase (20 µL, 200 units/mL) and an aqueous solution (170 µL) consisting of L-dopa (final concentrations: 0.125, 0.25, 0.5, 1, 2, 4, and 8 mM) and phosphate buffer (final concentration: 14.7 mM, pH 6.5). The increase in the absorbance at 475 nm (ΔOD475/min) was measured using a VersaMax^TM microplate reader to determine the initial rate of dopachrome generation. The maximal velocity (Vmax) was determined from the y-axis intercept values of the Lineweaver–Burk plots obtained at seven different L-dopa concentrations. Dixon plots were obtained from Lineweaver–Burk plots for inhibitors by plotting the reciprocal of the reaction velocity against the inhibitor concentration."}, "[5]": {"system": "HEK-293 cells", "experiment": "Cell viability (EZ-Cytox) assay in HEK-293 cells", "assay_type": "cell-based, human", "details": "40 μM (maximum concentration), 24 h", "procedure": "HEK-293 cells were obtained from American Type Culture Collection (ATCC; Manassas, VA, USA). Trypsin, streptomycin, fetal bovine serum (FBS), phosphate-buffered saline (PBS), penicillin, and Dulbecco’s modified Eagle’s medium (DMEM) for HEK-293 cell culture were purchased from Thermo Fisher Scientific (Carlsbad, CA, USA). HEK-293 cells were cultured in a DMEM solution containing penicillin (100 IU/mL), 10% heat-inactivated FBS, and streptomycin (100 µg/mL) in a 5% CO2 environment at 37 °C.\nCytotoxicity assays were performed using an EZ-Cytox assay (EZ-1000, DoGenBio, Seoul, Republic of Korea) in HEK-293 cells. Briefly, 96-well plates containing HEK-293 cells at a density of 1 × 10^4 cells per well were cultured in a 5% CO2 environment at 37 °C for 24 h. After 20 h, cells were treated with 2-MBI analogs 1−10 at 4 different concentrations (final concentration: 0, 2.5, 10, and 40 µM) and incubated for 24 h at 37 °C in a 5% CO2 environment. Then, 10 µL aliquot of the EZ-Cytox solution was added to each well. After 2 h incubation at 37 °C, the absorbance of each well was measured using a microplate reader (VersaMax®; Molecular Devices) at 450 nm."}, "[6]": {"experiment": "Water solubility (statement)", "assay_type": "physicochemical", "procedure": "as §1"}, "[7]": {"experiment": "In vitro ROS scavenging assay (SIN-1, DCFH-DA)", "details": "40 μM, ROS enhanced by SIN-1", "protocol": "At emission and excitation wavelengths of 535 and 485 nm, fluorescence intensity was measured using a fluorescence microplate reader (Berthold Technologies GmbH & Co., Wien, Austria).\nHydrolyzed DCFH reacts with ROS to produce the fluorescent substance dichlorofluorescein (DCF). The ROS-scavenging effects of the analogs were determined by measuring the emitted fluorescence. The in vitro ROS-scavenging effects were measured using 40 μM test samples."}, "[8]": {"experiment": "DPPH radical scavenging assay", "details": "1 mM test samples, 0.5 h", "procedure": "The DPPH radical scavenging activities of analogs 1–10 were evaluated according to a previously described protocol to examine the antioxidant effects of analogs 1–10. Briefly, an aliquot (180 µL) of DPPH methanol solution (0.2 mM) was mixed with a 2-MBI analogs’ DMSO (dimethyl sulfoxide) solution in each well of a 96-well plate, and the mixture was left in the dark for 0.5 h at room temperature. The optical density of each well was analyzed using a microplate reader (VersaMax®, Molecular Devices, Sunnyvale, CA, USA).\nAs the antioxidant ability of a compound may be involved in the inhibition of melanogenesis, the antioxidant effects of analogs 1–10 on DPPH radicals were explored. Vitamin C (L-ascorbic acid), a strong antioxidant, was used as the positive control. After mixing the test sample and DPPH solutions and standing at room temperature in the dark for 0.5 h, the absorbances of the mixed samples were measured at 517 nm using 1 mM test samples."}, "[9]": {"details": "5 mM spray every 12 h (analogs as sodium salts), 36 h storage, 20 °C"}, "[10]": {"details": "5 mM spray (analogs as sodium salts)"}},
  "note": "Like-named read-outs stand apart in the source and are kept apart here.",
  "data": [
    {"molecule": "Cc1cccc2[nH]c(S)nc12", "note": "[analog 9, 4-Methyl-1H-benzo[d]imidazole-2-thiol]", "values": [
      {"measurement": "ABTS radical cation scavenging activity, inhibition", "setting": "[1]", "result": 90, "unit": "%"},
      {"measurement": "inhibition at 5000 µM", "setting": "[2]; [9]", "result": "28.5 to 36.1", "unit": "%"}
    ]},
    {"molecule": "Sc1nc2ccccc2[nH]1", "note": "[analog 1, 1H-Benzo[d]imidazole-2-thiol]", "values": [
      {"measurement": "inhibition at 5000 µM", "setting": "[2]", "result": "28.5 to 36.1", "unit": "%"}
    ]},
    {"molecule": "O=C(c1ccccc1)c1ccc2[nH]c(S)nc2c1", "note": "[analog 6, (2-Mercapto-1H-benzo[d]imidazol-5-yl)(phenyl)methanone]", "values": [
      {"measurement": "fold more potent than kojic acid, diphenolase activity", "setting": "[3]", "result": 970, "unit": "fold"},
      {"measurement": "Ki", "setting": "[4]", "result": 8.6, "unit": "nM"},
      {"measurement": "mode of tyrosinase inhibition", "setting": "[4]", "result": "competitive"},
      {"measurement": "cytotoxicity in HEK-293 cells", "setting": "[5]", "result": "moderately cytotoxic"}
    ]},
    {"molecule": "Cc1cc2nc(S)[nH]c2cc1C", "note": "[analog 3, 5,6-Dimethyl-1H-benzo[d]imidazole-2-thiol]", "values": [
      {"measurement": "cytotoxicity in HEK-293 cells", "setting": "[5]", "result": "weakly"}
    ]},
    {"molecule": "NC(=S)Nc1ccccc1", "note": "[PTU, phenylthiourea, reference compound]", "values": [
      {"measurement": "L* value change (ΔL*)", "setting": "[2]; [10]", "result": 3.4},
      {"measurement": "inhibition at 5000 µM", "setting": "[2]", "result": 21.9, "unit": "%"},
      {"measurement": "water solubility", "setting": "[6]", "result": "poorly soluble in water"}
    ]},
    {"molecule": "Sc1nc2cc(Cl)ccc2[nH]1", "note": "[analog 4, 5-Chloro-1H-benzo[d]imidazole-2-thiol]", "values": [
      {"measurement": "in vitro ROS scavenging effect", "setting": "[7]", "result": "most potently reduced"}
    ]},
    {"molecule": "O=c1cc(CO)occ1O", "note": "[kojic acid, reference compound]", "values": [
      {"measurement": "L* value change (ΔL*)", "setting": "[2]; [10]", "result": 6.4},
      {"measurement": "inhibition at 5000 µM", "setting": "[2]; [9]", "result": 7, "unit": "%"}
    ]},
    {"molecule": "O=C1O[C@H]([C@@H](O)CO)C(O)=C1O", "note": "[Vitamin C, L-ascorbic acid]", "values": [
      {"measurement": "DPPH radical scavenging activity, inhibition", "setting": "[8]", "result": 98, "unit": "%"}
    ]},
    {"molecule": "Cc1c(C)c2c(c(C)c1O)CCC(C)(C(=O)O)O2", "note": "(stereo not drawn) [Trolox, reference compound]", "values": [
      {"measurement": "ABTS radical cation scavenging activity, inhibition", "setting": "[1]", "result": 96, "unit": "%"},
      {"measurement": "in vitro ROS scavenging effect", "setting": "[7]", "result": "greatly reduced"}
    ]},
    {"molecule": "COc1ccc2[nH]c(S)nc2c1", "note": "[analog 5, 5-Methoxy-1H-benzo[d]imidazole-2-thiol]", "values": [
      {"measurement": "L* value change (ΔL*)", "setting": "[2]; [10]", "result": 8.2}
    ]},
    {"molecule": "O=[N+]([O-])c1ccc2[nH]c(S)nc2c1", "note": "[analog 7, 5-Nitro-1H-benzo[d]imidazole-2-thiol]", "values": [
      {"measurement": "L* value change (ΔL*)", "setting": "[2]; [10]", "result": 1.3}
    ]},
    {"molecule": "N#Cc1ccc2[nH]c(S)nc2c1", "note": "[analog 10, 2-Mercapto-1H-benzo[d]imidazole-5-carbonitrile]", "values": [
      {"measurement": "Ki", "setting": "[4]", "result": 14.8, "unit": "nM"},
      {"measurement": "mode of tyrosinase inhibition", "setting": "[4]", "result": "competitive"},
      {"measurement": "L* value change (ΔL*)", "setting": "[2]; [10]", "result": 3.1},
      {"measurement": "overall color difference (ΔE) of apple slices", "setting": "[2]; 5 mM spray (analogs as sodium salts), over 48 h storage", "result": "lowest increase in ΔE"},
      {"measurement": "inhibition at 5000 µM", "setting": "[2]; [9]", "result": "28.5 to 36.1", "unit": "%"}
    ]}
  ]
}
